According to patent publication US20160051541A1 (CHANRX CORPORATION, priority 2013, published 2016):
Read-outs that look alike come from different tables or passages of the source.

What was measured:
[1] = Further studies of half-life and steady state on oral dosing; assay type: in vivo; details: in some cases
[2] = Recovery of radioactivity labeled vanoxerine in rats; assay type: in vivo
[3] = Example 2: daily doses of vanoxerine for 11 consecutive days in 12 subjects (PK, heart rate, blood pressure); assay type: in vivo, human; details: for PK Data (Mean +/- SD) T1/2 / PK Data (Mean +/- SD) CMax: 11 consecutive days
[4] = Example 1: plasma concentrations of vanoxerine and metabolites after a 300 mg dose in patients; assay type: in vivo, human; details: for concentration at 1 h / concentration at 3 h / concentration at 4 h / concentration at 6 h / concentration at 8 h / concentration at 12 h / concentration at 24 h / concentration at 0.5 h: human, plasma, 300 mg; for concentration at 0.5 h: .5 h
Method: Each patient gave blood samples before administration of their dose, and then again at nine further time points, 30 minutes after administration, 1, 2, 3, 4, 6, 8, 12, and 24 hours post administration.

[5] = Example 4: vanoxerine daily for 7 days in four patients; assay type: in vivo, human; details: 50, 100 and 150 mg daily, all patients
[6] = Preliminary studies of daily use over 7, 10 and 14 days; assay type: in vivo; details: 75, 100, 125 and 150 mg a day over 7, 10 and 14 days
[7] = Pharmacokinetic tests in dogs; assay type: in vivo; details: dog, plasma; repetitive dosing in dogs
[8] = Example 3: vanoxerine daily for 14 days in fourteen healthy patients; assay type: in vivo, human
Method: A standardized meal was served 15 minutes prior to each dosing.

[9] = cited from earlier work
atrial fibrillation = details: canines, cited from earlier work
[10] = 10 patients, 1.00 = below LLOQ, read-out: High concentration group average
[11] = 15 patients, 1.00 = below LLOQ, read-out: Low concentration group average

For `Fc1ccc(C(OCCN2CCN(CCCc3ccccc3)CC2)c2ccc(F)cc2)cc1` [Vanoxerine, 1-[2-[bis(4-fluorophenyl)methoxy]ethyl]-4-(3-phenylpropyl)piperazine], the “steady state achieved within” value ([1]; oral dosing) was no more than 3 days, the half-life ([1]; plasma, oral) was no more than 125 h and the “recovery of administered radioactivity” value [2] was “incomplete”. For the same molecule, the plasma levels detectable ([3]; 25 mg daily) was “not detectable after 8 hours”, the “PK Data (Mean +/- SD) T1/2” value ([3]; 50 mg daily, range 4.71-110.57) was 49.39 +/− 26.18 hr (4.71-110.57) and the “PK Data (Mean +/- SD) CMax” value ([3]; 75 mg daily) was 27.4 ± 15.5 ng/mL. For the same molecule, the “PK Data (Mean +/- SD) T1/2” value ([3]; 75 mg daily, range 10.26-116.67) was 52.53 +/− 37.46 (10.26-116.67) hr, the “PK Data (Mean +/- SD) CMax” value ([3]; 100 mg daily) was 40.2 ± 26.6 ng/mL and the “PK Data (Mean +/- SD) T1/2” value ([3]; 100 mg daily, range 5.56-125.00) was 15.38 +/− 43.55 (5.56-125.00) hr. For the same molecule, the plasma levels detectable ([3]; 50, 75 and 100 mg doses) was “detectable at 24 hours”, the steady state reached ([3]; 50, 75 and 100 mg doses daily) was no more than 8 days and the “heart rate and systolic blood pressure” value ([3]; 75 and 100 mg doses daily) was “increased slightly in most subjects”. For the same molecule, the PK linearity ([3]; across 50, 75 and 100 mg doses) was “linear and the dose proportional”, the “half-life of the drug when daily doses are given” value ([3]; daily doses) was “increased half-life” and the Tmax ([3]; human, plasma, printed under the 50 mg line, +- 0.5 hr (0.5-2.0)) was 1.27 h. The concentration at 1 h [4, 10] was 115 ng/mL, the concentration at 3 h [4, 10] was 156 ng/mL and the concentration at 4 h [4, 10] was 96.1 ng/mL. It also gave a concentration at 6 h [4, 10] of 57.1 ng/mL, a concentration at 8 h [4, 10] of 43.2 ng/mL and a concentration at 12 h [4, 10] of 29.3 ng/mL. The concentration at 24 h ([4]; 10 patients, read-out: High concentration group average) was 3.07 ng/mL, the concentration at 0.5 h [4, 10] was 37.7 ng/mL and the concentration at 1 h [4, 11] was 40.1 ng/mL. For the same molecule, the concentration at 3 h [4, 11] was 31.4 ng/mL, the concentration at 4 h [4, 11] was 24.4 ng/mL and the concentration at 6 h [4, 11] was 16.7 ng/mL. The concentration at 8 h [4, 11] was 11.8 ng/mL, the concentration at 12 h [4, 11] was 6.31 ng/mL and the concentration at 24 h [4, 11] was 5.01 ng/mL. The concentration at 0.5 h [4, 11] was 17 ng/mL, the “plasma levels, highest at any time point” value ([4]; low concentration group) was roughly 40 ng/mL and the steady-state levels achieved [5] was “within one week”. For the same molecule, the “heart rate and systolic blood pressure” value [6] was “increased heart rate and systolic blood pressure”, the half-life [7] was roughly 66 h and the “steady state serum levels reported within” value ([8]; 25, 75 and 125 mg daily for 14 days) was 9 to 11 days. The adverse events ([8]; 25, 75 and 125 mg daily for 14 days, standardized meal before dosing) was “No significant adverse events”, the “serum levels, dose proportionality” value ([8]; higher doses compared with lower doses) was “disproportionately and statistically greater levels at higher doses” and the side-effects ([9]; daily repetitive dose of 50 mg) was “no side-effects should be expected”. For the same molecule, the side-effects ([9]; higher doses) was “some effects were seen with regard to concentration difficulties, increase systolic blood pressure, asthenia, and a feeling of drug influence”.

For `COc1ccccc1OCC(O)CN1CCN(CC(=O)Nc2c(C)cccc2C)CC1` (stereo not drawn) [ranolazine], the anti-AF effect (atrial fibrillation; clinically relevant conditions) is given as “suppress atrial fibrillation” and the “effects on ventricular myocardium” value (atrial fibrillation) is given as “minimal effects on ventricular myocardium”.
